Key:
[1] = test system: Tyrosine-protein kinase ABL1 (Homo sapiens), P00519 [F317I]; settings: Compound concentration 1000.0 nM
[2] = molecular target: Aurora kinase C (Homo sapiens) (UniProt Q9UQB9); settings: Compound concentration 1000.0 nM
[3] = molecular target: Bone morphogenetic protein receptor type-1A (Homo sapiens) (UniProt P36894); settings: Compound concentration 1000.0 nM
[4] = molecular target: Calcium/calmodulin-dependent protein kinase type 1B (Homo sapiens) (UniProt Q6P2M8); settings: Compound concentration 1000.0 nM
[5] = molecular target: Cyclin-dependent kinase 11B (Homo sapiens) (UniProt P21127); settings: Compound concentration 1000.0 nM
[6] = molecular target: Serine/threonine-protein kinase 17A (Homo sapiens) (UniProt Q9UEE5); settings: Compound concentration 1000.0 nM
[7] = molecular target: Dual specificity tyrosine-phosphorylation-regulated kinase 2 (Homo sapiens) (UniProt Q92630); settings: Compound concentration 1000.0 nM
[8] = molecular target: Ephrin type-A receptor 2 (Homo sapiens) (UniProt P29317); settings: Compound concentration 1000.0 nM
[9] = molecular target: Ephrin type-B receptor 2 (Homo sapiens) (UniProt P29323); settings: Compound concentration 1000.0 nM
[10] = test system: Receptor-type tyrosine-protein kinase FLT3 (Homo sapiens), P36888 [UNDEFINED MUTATION]; settings: Compound concentration 1000.0 nM
[11] = molecular target: Serine/threonine-protein kinase haspin (Homo sapiens) (UniProt Q8TF76); settings: Compound concentration 1000.0 nM
[12] = molecular target: Inhibitor of nuclear factor kappa-B kinase subunit beta (Homo sapiens) (UniProt O14920); settings: Compound concentration 1000.0 nM
[13] = molecular target: LIM domain kinase 2 (Homo sapiens) (UniProt P53671); settings: Compound concentration 1000.0 nM
[14] = molecular target: Serine/threonine-protein kinase STK11 (Homo sapiens) (UniProt Q15831); settings: Compound concentration 1000.0 nM
[15] = molecular target: Mitogen-activated protein kinase kinase kinase 4 (Homo sapiens) (UniProt Q9Y6R4); settings: Compound concentration 1000.0 nM
[16] = molecular target: MAP/microtubule affinity-regulating kinase 3 (Homo sapiens) (UniProt P27448); settings: Compound concentration 1000.0 nM
[17] = molecular target: Microtubule-associated serine/threonine-protein kinase 1 (Homo sapiens) (UniProt Q9Y2H9); settings: Compound concentration 1000.0 nM
[18] = molecular target: MAP kinase-interacting serine/threonine-protein kinase 1 (Homo sapiens) (UniProt Q9BUB5); settings: Compound concentration 1000.0 nM
[19] = molecular target: Mitogen-activated protein kinase 14 (Homo sapiens) (UniProt Q16539); settings: Compound concentration 1000.0 nM
[20] = molecular target: Serine/threonine-protein kinase PAK 4 (Homo sapiens) (UniProt O96013); settings: Compound concentration 1000.0 nM
[21] = molecular target: Platelet-derived growth factor receptor alpha (Homo sapiens) (UniProt P16234); settings: Compound concentration 1000.0 nM
[22] = molecular target: 3-phosphoinositide-dependent protein kinase 1 (Homo sapiens) (UniProt O15530); settings: Compound concentration 1000.0 nM
[23] = molecular target: Phosphatidylinositol 4,5-bisphosphate 3-kinase catalytic subunit alpha isoform (Homo sapiens) (UniProt P42336); settings: Compound concentration 1000.0 nM
[24] = test system: Phosphatidylinositol 4,5-bisphosphate 3-kinase catalytic subunit alpha isoform (Homo sapiens), P42336 [E542K]; settings: Compound concentration 1000.0 nM
[25] = test system: Phosphatidylinositol 4,5-bisphosphate 3-kinase catalytic subunit alpha isoform (Homo sapiens), P42336 [E545A]; settings: Compound concentration 1000.0 nM
[26] = molecular target: Serine/threonine-protein kinase D2 (Homo sapiens) (UniProt Q9BZL6); settings: Compound concentration 1000.0 nM
[27] = molecular target: Serine/threonine-protein kinase Sgk3 (Homo sapiens) (UniProt Q96BR1); settings: Compound concentration 1000.0 nM
[28] = molecular target: Proto-oncogene tyrosine-protein kinase Src (Homo sapiens) (UniProt P12931); settings: Compound concentration 1000.0 nM
[29] = molecular target: TRAF2 and NCK-interacting protein kinase (Homo sapiens) (UniProt Q9UKE5); settings: Compound concentration 1000.0 nM
[30] = molecular target: Serine/threonine-protein kinase ULK1 (Homo sapiens) (UniProt O75385); settings: Compound concentration 1000.0 nM
[31] = molecular target: Mitogen-activated protein kinase kinase kinase 20 (Homo sapiens) (UniProt Q9NYL2); settings: Compound concentration 1000.0 nM
[32] = molecular target: T1, 5-hydroxytryptamine receptor 2C (Homo sapiens) (UniProt P28335); settings: Compound concentration 10.0 uM
T1 sequence (whole entry): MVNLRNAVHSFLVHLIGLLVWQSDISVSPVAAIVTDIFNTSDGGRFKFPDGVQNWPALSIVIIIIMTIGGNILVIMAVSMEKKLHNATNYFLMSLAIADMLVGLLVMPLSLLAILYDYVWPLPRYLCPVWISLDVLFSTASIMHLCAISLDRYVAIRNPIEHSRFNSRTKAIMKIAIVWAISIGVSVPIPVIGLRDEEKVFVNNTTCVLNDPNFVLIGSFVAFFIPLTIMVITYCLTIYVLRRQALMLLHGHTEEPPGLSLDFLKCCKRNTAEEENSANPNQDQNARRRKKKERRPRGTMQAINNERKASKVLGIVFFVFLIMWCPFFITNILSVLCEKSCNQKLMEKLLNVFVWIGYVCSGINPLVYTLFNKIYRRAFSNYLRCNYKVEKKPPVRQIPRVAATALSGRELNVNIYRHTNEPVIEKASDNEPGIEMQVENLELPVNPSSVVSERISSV

Chain of Mitogen-activated protein kinase 14 (Homo sapiens) (Q16539 whole entry): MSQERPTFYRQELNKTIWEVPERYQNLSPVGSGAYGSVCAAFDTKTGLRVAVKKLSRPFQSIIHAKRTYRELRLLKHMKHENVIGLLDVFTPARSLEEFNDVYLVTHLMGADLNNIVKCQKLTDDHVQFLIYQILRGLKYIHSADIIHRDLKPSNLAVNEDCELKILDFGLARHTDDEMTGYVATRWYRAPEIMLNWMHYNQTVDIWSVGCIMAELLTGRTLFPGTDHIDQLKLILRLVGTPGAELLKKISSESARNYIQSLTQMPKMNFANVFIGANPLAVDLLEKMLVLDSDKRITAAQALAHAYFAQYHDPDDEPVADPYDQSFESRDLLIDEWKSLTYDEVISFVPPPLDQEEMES
Chain of Serine/threonine-protein kinase 17A (Homo sapiens) (Q9UEE5 whole entry): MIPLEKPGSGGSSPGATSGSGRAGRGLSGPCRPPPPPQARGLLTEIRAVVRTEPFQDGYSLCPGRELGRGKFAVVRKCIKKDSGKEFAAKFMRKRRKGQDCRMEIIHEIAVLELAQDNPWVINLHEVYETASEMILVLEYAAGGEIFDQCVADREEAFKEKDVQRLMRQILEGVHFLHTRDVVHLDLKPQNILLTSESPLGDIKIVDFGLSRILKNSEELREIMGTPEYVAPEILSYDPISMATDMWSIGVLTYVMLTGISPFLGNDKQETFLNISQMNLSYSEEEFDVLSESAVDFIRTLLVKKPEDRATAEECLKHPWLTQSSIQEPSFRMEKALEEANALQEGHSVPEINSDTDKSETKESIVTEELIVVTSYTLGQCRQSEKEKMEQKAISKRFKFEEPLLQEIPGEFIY
Chain of Inhibitor of nuclear factor kappa-B kinase subunit beta (Homo sapiens) (O14920 whole entry, the tested form may be a part): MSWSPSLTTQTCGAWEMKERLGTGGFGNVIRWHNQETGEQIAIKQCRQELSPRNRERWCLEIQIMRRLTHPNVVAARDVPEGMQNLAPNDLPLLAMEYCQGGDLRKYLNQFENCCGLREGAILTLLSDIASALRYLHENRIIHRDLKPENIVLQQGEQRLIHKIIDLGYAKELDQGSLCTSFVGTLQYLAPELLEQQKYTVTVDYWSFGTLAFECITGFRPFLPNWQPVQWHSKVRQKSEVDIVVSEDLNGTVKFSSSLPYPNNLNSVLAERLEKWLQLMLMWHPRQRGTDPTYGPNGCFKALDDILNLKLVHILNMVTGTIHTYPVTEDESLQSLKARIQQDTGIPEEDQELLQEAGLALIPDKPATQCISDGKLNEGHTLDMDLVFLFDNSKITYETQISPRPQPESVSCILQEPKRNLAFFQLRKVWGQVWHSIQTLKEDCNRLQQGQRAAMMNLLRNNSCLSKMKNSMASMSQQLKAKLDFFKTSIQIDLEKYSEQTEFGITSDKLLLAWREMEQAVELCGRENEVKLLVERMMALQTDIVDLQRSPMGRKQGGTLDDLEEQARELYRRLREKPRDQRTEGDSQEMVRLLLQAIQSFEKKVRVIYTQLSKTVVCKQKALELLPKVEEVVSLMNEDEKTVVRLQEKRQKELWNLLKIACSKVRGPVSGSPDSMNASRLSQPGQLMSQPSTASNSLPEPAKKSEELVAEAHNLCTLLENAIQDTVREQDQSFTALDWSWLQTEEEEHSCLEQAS
Chain of Mitogen-activated protein kinase kinase kinase 4 (Homo sapiens) (Q9Y6R4 whole entry): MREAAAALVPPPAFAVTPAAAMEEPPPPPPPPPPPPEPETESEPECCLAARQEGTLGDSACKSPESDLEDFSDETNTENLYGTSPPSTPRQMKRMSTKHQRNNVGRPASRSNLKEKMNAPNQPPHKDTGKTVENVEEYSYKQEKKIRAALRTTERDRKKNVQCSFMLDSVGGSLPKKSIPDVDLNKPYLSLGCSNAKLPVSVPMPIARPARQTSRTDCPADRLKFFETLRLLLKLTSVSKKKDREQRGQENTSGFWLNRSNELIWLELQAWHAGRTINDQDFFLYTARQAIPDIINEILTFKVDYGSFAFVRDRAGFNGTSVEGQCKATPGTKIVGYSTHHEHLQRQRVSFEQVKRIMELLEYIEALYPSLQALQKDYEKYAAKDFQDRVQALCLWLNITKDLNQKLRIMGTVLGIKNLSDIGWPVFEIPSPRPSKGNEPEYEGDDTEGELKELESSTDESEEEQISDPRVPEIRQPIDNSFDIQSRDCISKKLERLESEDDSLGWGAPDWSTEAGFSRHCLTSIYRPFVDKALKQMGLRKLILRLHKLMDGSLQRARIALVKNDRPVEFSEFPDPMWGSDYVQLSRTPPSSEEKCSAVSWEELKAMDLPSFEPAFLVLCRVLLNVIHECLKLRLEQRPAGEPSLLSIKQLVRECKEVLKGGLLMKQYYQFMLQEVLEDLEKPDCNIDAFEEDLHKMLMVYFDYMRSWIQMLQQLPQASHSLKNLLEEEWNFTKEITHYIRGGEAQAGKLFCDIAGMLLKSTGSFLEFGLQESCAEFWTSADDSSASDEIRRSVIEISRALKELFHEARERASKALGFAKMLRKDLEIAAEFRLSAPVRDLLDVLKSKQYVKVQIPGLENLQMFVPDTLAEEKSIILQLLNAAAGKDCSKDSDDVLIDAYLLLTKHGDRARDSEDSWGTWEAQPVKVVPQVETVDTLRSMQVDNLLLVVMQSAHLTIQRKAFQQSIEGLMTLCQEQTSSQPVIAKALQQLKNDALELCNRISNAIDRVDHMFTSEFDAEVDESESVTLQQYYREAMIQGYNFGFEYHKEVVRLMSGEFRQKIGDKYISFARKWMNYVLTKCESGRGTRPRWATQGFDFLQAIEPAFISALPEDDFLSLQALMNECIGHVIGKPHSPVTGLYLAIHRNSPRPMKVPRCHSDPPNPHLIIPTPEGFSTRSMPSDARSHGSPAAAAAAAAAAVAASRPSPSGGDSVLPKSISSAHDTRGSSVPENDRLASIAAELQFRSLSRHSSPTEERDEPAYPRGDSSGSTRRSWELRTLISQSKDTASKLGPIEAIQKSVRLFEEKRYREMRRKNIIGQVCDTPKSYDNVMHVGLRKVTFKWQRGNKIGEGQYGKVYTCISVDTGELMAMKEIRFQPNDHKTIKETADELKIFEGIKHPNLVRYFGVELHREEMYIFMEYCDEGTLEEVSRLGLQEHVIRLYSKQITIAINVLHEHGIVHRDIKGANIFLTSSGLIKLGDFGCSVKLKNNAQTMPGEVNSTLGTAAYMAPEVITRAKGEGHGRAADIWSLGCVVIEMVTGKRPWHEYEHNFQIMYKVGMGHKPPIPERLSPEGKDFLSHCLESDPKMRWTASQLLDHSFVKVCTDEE
Chain of LIM domain kinase 2 (Homo sapiens) (P53671 whole entry, looked up, the tested form may be a part): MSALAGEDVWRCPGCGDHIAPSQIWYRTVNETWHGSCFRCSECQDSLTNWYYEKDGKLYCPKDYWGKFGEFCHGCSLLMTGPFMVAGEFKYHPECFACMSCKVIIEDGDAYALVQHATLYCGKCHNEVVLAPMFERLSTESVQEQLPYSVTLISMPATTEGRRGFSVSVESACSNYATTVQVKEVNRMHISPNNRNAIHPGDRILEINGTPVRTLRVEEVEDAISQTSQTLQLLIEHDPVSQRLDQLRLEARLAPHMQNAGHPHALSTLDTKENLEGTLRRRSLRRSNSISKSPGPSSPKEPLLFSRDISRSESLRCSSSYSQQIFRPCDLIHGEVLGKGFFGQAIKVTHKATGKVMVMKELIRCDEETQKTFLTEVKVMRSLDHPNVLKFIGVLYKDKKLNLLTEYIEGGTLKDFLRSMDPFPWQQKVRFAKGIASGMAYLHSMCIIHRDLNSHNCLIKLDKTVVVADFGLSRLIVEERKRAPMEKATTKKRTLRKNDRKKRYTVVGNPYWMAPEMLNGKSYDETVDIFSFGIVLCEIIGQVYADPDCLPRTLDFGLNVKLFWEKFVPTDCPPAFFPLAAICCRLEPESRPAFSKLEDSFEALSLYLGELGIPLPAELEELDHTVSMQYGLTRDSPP
Chain of Phosphatidylinositol 4,5-bisphosphate 3-kinase catalytic subunit alpha isoform (Homo sapiens), P42336 [E542K] (P42336 whole entry E542K, canonical isoform): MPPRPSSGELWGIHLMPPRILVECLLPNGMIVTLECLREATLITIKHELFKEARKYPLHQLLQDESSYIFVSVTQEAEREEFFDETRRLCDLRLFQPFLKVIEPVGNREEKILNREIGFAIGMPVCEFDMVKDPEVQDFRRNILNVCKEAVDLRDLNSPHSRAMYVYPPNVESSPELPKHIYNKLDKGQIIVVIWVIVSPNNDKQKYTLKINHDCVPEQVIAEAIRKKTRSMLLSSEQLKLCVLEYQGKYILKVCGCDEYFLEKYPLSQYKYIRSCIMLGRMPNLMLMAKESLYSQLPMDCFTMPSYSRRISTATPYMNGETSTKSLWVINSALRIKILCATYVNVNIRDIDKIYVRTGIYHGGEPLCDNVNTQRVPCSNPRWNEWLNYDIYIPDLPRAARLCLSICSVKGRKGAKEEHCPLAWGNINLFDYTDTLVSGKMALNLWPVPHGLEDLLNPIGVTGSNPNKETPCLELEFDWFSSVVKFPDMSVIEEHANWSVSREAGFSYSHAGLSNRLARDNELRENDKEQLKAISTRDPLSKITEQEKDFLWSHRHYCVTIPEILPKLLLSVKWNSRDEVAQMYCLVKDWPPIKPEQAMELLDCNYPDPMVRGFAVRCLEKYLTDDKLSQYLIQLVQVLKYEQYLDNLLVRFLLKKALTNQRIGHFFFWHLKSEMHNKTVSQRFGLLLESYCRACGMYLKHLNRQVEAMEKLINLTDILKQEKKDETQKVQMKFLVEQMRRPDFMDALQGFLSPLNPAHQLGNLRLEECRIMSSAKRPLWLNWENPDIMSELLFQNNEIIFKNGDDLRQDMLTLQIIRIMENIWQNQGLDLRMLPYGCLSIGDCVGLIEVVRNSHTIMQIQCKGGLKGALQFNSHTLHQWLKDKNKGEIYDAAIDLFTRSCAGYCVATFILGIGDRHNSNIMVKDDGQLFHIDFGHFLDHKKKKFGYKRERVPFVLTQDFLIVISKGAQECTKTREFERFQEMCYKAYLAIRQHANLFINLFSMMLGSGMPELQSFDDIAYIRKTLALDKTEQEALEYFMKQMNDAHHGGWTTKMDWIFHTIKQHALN

SMILES	residual activity [1] [%]	residual activity [2] [%]	residual activity [3] [%]	residual activity [4] [%]	residual activity [5] [%]	residual activity [6] [%]	residual activity [7] [%]	residual activity [8] [%]	residual activity [9] [%]	residual activity [10] [%]	residual activity [11] [%]	residual activity [12] [%]	residual activity [13] [%]	residual activity [14] [%]	residual activity [15] [%]	residual activity [16] [%]	residual activity [17] [%]	residual activity [18] [%]	residual activity [19] [%]	residual activity [20] [%]	also measured
CNC(=O)Nc1ccc2c(c1)CC[C@@]21OC(=O)N(CC(=O)N(Cc2ccc(F)cc2)[C@@H](C)C(F)(F)F)C1=O [A-485]	87	100	91	100	84	100	88	76	72	84	100	83	88	100	89	100	94	67	100	89	residual activity [21]: 93%; residual activity [22]: 88%; residual activity [23]: 83%; residual activity [24]: 76%; residual activity [25]: 91%; residual activity [26]: 100%; residual activity [27]: 68%; residual activity [28]: 91%; residual activity [29]: 93%; residual activity [30]: 70%; residual activity [31]: 82%; inhibition [32]: 16.5%
CNC(=O)Nc1ccc2c(c1)[C@@]1(CC2)OC(=O)N(CC(=O)N(Cc2ccc(F)cc2)[C@@H](C)C(F)(F)F)C1=O [A-486]	73	100	100	90	97	88	92	100	87	87	83	92	90	100	87	100	85	94	100	95	residual activity [21]: 83%; residual activity [22]: 85%; residual activity [23]: 28%; residual activity [24]: 69%; residual activity [25]: 97%; residual activity [26]: 100%; residual activity [27]: 72%; residual activity [28]: 90%; residual activity [29]: 87%; residual activity [30]: 64%; residual activity [31]: 93%; inhibition [32]: -3.43%
